Molecules are shown by their SMILES. Where two headings read alike, the source gives them in different places. Bounds are passed on as bounds.

One data set has as its target T1, 5-HT1a (Homo sapiens, UniProt P08908).
T1 sequence (P08908 1-422): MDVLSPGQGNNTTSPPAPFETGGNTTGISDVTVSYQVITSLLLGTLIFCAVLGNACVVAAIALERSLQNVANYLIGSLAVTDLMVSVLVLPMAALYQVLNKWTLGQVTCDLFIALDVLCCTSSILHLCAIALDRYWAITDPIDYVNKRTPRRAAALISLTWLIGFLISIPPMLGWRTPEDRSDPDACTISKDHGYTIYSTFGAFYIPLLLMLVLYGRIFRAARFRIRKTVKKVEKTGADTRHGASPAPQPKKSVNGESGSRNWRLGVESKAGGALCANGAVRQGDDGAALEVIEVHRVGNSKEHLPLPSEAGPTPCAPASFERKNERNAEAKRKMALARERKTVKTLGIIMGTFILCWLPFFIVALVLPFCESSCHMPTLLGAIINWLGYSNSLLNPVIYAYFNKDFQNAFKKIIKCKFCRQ
Briefly: Radioligand displacement, 5-HT1a. It counts as binding.

The target of another data set is 5-HT2a (Homo sapiens, UniProt P28223). The data set is described as follows: Radioligand displacement, 5-HT2a. Format: binding. A general note: Displacement assays read how much labelled ligand stays bound in the presence of the test substance.
Another data set concerns the target 5-HT2b (Homo sapiens, UniProt P41595). The data set is described as follows: Radioligand displacement, 5-HT2b. Format: binding.
For a further data set, the target named is T2, 5-HT2c (Homo sapiens, UniProt P28335).
T2 sequence (P28335 33-458): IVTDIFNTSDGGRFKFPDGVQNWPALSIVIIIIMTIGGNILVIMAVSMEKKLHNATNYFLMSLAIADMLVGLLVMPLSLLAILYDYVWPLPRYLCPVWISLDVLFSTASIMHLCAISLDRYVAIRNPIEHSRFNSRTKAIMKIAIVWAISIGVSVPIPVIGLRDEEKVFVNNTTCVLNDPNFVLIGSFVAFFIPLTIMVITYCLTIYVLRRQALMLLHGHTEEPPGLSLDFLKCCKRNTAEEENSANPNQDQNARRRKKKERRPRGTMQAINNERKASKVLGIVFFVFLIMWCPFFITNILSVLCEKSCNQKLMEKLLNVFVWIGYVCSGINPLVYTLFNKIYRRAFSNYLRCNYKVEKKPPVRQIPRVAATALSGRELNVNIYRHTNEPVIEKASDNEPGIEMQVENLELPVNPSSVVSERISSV
Briefly: Radioligand displacement, 5-HT2c. Format: binding.

The target of another data set is 5-HT5a (Homo sapiens, UniProt P47898). Briefly: Radioligand displacement, 5-HT5a. Format: binding.
The target of another data set is T3, α1B (Homo sapiens, UniProt P35368).
T3 sequence (P35368 1-520): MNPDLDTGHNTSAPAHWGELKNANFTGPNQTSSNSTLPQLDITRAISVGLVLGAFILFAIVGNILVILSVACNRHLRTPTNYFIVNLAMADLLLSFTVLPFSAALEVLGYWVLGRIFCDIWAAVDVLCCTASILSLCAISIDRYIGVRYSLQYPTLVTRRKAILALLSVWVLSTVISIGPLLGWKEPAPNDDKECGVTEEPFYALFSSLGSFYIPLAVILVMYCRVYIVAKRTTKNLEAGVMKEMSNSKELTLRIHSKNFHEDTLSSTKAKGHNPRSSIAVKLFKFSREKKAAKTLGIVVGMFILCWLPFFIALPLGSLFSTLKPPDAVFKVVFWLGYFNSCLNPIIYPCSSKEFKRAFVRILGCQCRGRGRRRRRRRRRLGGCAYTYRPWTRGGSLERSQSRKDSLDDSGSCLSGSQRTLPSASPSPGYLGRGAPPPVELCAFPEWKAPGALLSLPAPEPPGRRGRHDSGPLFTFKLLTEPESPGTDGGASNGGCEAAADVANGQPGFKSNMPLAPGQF
Briefly: Radioligand displacement, α1B. It counts as binding.

A further data set has as its target β1 (Homo sapiens, UniProt P08588). The data set is described as follows: Radioligand displacement, β1. It counts as binding.
The target in the next data set is β2 (Homo sapiens, UniProt P07550). The data set is described as follows: Radioligand displacement, β2. Format: binding.
For another data set, the target named is D1 (Homo sapiens, UniProt P21728). The data set is described as follows: Radioligand displacement, D1. Format: binding.
Data set [1] concerns the target M1 muscarinic receptors (M1-R) (Homo sapiens, UniProt P11229). Briefly: Radioligand displacement, M1. It counts as binding.
The target of the next data set is M2 (Homo sapiens, UniProt P08172). The data set is described as follows: biochemical. It counts as binding.
Another data set deals with M4 (Homo sapiens, UniProt P08173). Briefly: Radioligand displacement, M4. It counts as binding.
In data set [2] the target is NMDA receptors, phencyclidine (cation channel) site. The data set is described as follows: Radioligand displacement, NMDA. It counts as binding, Rat. The conditions noted are these: for Ki: [3H] radioligand MK801, Rat, Brain.
The subject of another data set is mice. The conditions noted are these: mice, cited from earlier work.
Another data set addresses T4, α2A (Homo sapiens, UniProt P08913).
T4 sequence (P08913 1-465): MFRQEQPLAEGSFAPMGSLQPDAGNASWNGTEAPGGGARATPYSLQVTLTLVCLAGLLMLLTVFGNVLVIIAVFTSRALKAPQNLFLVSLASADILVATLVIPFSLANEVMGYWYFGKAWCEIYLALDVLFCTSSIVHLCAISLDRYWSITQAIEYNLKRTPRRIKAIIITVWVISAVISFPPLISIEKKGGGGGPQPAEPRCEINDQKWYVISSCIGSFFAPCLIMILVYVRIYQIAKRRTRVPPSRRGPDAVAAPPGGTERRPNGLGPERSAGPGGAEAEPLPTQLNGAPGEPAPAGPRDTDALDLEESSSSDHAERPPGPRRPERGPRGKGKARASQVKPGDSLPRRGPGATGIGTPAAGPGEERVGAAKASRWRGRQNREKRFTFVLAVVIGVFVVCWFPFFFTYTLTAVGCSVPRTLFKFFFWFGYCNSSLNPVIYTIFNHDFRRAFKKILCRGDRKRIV
Briefly: Radioligand displacement, α2A.

In a further data set the target is DAT (Homo sapiens, UniProt Q01959). The data set is described as follows: Radioligand displacement, DAT.
The target of another data set is 5-HT1d (Homo sapiens, UniProt P28221). The data set is described as follows: Radioligand displacement, 5-HT1d.
Where [3] appears, read: [3H] radioligand 8-OH-DPAT, Human, Cloned.
The mark [4] stands for this setting: Ki, [3H] radioligand Prazosin, Human, Cloned.
The mark [5] stands for this setting: Ki, [3H] radioligand QNB, Human, Cloned.
[6] abbreviates: Ki, [3H] radioligand GR125743, Human, Cloned.
[7] abbreviates: [3H] radioligand LSD, Human, Cloned, read-out: Ki.
The mark [8] stands for this setting: [3H] radioligand QNB, Human, Cloned, read-out: Ki.

Chain of 5-HT1d (P28221 whole entry): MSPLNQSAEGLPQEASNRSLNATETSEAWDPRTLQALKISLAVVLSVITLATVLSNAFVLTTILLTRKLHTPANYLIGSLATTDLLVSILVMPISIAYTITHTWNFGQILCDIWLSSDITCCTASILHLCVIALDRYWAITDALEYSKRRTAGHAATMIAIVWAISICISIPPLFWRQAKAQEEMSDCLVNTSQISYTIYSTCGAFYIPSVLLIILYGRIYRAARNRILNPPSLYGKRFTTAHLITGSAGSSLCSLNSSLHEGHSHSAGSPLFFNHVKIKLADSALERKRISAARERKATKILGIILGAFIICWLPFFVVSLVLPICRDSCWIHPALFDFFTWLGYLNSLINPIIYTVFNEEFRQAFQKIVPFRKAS
Chain of M4 (P08173 whole entry): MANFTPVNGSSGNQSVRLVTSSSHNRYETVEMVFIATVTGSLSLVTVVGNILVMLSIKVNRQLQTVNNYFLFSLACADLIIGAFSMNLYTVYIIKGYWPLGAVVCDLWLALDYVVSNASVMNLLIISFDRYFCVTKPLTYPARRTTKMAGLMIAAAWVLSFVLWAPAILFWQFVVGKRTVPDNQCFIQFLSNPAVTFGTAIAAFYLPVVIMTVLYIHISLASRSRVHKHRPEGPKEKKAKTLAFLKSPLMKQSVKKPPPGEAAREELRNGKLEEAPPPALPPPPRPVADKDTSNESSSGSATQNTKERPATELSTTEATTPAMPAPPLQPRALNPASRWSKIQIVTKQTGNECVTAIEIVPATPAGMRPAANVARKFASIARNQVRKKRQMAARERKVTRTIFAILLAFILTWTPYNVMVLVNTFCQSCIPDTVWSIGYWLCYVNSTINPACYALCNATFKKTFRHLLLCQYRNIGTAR
Chain of 5-HT5a (P47898 whole entry): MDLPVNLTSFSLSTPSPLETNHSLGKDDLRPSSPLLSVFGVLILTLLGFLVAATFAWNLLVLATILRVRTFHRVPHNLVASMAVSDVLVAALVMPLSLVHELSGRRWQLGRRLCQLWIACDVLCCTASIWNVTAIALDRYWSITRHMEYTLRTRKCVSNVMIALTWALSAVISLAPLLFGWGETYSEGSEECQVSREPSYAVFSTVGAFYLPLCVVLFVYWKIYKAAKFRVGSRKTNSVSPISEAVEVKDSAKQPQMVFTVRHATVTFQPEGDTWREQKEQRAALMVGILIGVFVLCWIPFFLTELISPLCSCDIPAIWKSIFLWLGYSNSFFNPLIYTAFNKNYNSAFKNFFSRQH
Chain of 5-HT2a (P28223 whole entry): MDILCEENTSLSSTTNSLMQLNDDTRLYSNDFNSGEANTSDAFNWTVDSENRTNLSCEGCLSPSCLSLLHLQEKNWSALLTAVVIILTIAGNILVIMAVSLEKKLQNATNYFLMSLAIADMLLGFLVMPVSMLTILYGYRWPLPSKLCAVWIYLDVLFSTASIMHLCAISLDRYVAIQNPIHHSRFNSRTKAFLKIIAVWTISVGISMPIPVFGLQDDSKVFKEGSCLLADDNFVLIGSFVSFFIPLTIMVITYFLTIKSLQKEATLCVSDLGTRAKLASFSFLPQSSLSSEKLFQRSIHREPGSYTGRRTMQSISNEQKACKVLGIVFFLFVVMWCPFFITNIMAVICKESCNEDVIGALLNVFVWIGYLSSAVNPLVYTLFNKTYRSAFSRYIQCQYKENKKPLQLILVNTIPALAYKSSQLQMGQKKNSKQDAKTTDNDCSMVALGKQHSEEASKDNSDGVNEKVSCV
Chain of 5-HT2b (P41595 whole entry): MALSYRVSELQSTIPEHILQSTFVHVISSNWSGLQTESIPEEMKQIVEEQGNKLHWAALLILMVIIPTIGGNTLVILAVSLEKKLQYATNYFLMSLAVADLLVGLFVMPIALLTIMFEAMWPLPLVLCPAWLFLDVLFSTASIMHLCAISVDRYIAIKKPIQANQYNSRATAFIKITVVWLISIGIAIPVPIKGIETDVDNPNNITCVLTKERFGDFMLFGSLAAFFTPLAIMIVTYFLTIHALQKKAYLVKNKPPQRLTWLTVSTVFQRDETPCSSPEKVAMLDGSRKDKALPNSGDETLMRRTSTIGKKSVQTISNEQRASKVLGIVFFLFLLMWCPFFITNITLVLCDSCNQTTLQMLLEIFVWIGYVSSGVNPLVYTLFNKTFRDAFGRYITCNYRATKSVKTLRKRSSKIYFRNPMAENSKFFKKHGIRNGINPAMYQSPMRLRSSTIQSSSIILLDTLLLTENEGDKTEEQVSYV
Chain of M2 (P08172 whole entry): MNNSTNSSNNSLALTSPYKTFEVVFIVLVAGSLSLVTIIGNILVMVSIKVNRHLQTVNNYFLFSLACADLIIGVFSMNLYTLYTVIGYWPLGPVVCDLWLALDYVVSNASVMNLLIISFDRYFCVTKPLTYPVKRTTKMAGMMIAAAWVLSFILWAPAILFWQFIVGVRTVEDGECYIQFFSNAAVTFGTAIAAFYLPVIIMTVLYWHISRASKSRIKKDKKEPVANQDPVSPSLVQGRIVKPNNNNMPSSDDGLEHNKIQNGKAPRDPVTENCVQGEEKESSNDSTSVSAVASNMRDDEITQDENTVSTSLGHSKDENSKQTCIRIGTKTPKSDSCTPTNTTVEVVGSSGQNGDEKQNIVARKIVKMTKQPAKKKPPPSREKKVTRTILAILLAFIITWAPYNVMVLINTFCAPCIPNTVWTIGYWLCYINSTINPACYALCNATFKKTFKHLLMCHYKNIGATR
Chain of DAT (Q01959 whole entry): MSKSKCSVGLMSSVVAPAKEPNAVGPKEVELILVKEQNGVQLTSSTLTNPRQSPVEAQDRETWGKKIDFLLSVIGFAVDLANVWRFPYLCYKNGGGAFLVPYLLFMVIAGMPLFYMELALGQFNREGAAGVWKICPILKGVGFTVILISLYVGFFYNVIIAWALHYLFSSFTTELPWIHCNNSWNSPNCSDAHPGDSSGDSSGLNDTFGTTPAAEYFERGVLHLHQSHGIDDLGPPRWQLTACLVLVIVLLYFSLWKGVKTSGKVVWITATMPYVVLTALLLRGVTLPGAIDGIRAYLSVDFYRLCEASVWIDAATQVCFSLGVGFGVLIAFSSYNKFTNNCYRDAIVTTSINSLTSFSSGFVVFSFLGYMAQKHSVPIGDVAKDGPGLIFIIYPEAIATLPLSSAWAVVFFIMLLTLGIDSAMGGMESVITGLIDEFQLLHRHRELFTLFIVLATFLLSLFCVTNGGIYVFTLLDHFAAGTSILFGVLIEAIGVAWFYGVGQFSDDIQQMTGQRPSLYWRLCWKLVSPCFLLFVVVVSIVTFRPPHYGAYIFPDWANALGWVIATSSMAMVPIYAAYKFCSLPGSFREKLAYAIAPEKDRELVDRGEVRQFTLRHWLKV
Chain of D1 (P21728 whole entry): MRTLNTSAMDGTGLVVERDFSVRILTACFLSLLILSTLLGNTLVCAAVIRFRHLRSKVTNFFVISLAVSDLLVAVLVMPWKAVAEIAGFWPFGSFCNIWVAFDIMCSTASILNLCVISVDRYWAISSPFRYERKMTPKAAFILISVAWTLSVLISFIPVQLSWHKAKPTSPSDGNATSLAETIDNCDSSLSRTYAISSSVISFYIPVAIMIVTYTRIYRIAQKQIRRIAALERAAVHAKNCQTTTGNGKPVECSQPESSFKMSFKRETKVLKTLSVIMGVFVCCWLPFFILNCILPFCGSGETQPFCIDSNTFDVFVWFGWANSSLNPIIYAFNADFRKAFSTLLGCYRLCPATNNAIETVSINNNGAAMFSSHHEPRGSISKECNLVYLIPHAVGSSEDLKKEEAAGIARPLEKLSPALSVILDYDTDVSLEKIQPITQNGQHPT
Chain of M1 muscarinic receptors (M1-R) (P11229 whole entry): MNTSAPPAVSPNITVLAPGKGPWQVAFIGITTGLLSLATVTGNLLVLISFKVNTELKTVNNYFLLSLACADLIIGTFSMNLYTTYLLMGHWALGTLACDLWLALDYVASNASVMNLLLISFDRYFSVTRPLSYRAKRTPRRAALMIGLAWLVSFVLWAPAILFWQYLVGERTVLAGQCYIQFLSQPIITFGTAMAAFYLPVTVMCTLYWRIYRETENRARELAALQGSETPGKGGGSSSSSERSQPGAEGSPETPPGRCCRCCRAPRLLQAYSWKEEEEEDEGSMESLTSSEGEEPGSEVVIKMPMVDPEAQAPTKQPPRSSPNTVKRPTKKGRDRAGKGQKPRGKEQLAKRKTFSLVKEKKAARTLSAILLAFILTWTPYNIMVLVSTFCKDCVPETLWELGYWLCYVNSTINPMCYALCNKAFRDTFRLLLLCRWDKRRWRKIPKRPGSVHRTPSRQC
Chain of β1 (P08588 whole entry): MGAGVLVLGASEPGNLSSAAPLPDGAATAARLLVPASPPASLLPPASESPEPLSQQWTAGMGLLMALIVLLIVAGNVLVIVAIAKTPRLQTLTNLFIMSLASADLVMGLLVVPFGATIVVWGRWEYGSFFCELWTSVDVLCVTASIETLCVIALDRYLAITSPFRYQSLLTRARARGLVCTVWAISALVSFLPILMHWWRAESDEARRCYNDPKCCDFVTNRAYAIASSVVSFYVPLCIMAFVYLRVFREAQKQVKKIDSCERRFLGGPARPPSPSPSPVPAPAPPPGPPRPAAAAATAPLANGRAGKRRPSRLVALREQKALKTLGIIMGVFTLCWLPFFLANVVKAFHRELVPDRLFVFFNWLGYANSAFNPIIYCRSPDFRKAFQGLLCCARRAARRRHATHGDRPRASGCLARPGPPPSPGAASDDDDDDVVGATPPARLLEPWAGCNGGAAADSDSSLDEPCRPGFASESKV

`N=C(N)Nc1ccc2[nH]c3c(c2c1)C[C@@]1(O)[C@H]2Cc4ccc(O)c5c4[C@@]1(CCN2CC1CC1)[C@H]3O5` [GNTI, 5′-guanidinonaltrindole]: the Ki at 5-HT1a (setting [3]) is at least 10 µM; at 5-HT2a, at least 10 µM; at 5-HT2b, at least 10 µM; on 5-HT2c, at least 10 µM; at 5-HT5a it was at least 10 µM; at α1B (setting [4]), 8.9 µM. Also, the Ki is 8.91 µM at α1B (Ki, binding curve File S1 (GNTI page), Alpha1B Receptor, [125I]HEAT (0.05 nM)); at least 10 µM at β1; at least 10 µM on β2; at least 10 µM at D1; at least 10 µM in [1]; 5.37 µM at M2 (setting [5]). In addition, the Ki was 5.36 µM at M2 (Ki, binding curve File S1, M2 Receptor, [3H]QNB (0.1 nM), Muscarinic Binding Buffer); 5.4 µM on M2 (M2, radioligand displacement (Table 1), read-out: K i); at least 10 µM on M4; at least 10 µM in data set [2]; at least 10 µM on α2A (Ki, [3H] radioligand Rauwolscine, Human, Cloned); at least 10 µM on DAT. Besides, the Ki at 5-HT1d (setting [6]) is at least 10 µM. The “displacement from M1-R” value in [1] (at 10 µM, [3H]3-quinuclidinyl benzilate (QNB)) came out at 49%. Also, the “time to ataxia, convulsions and death” value with mice (30 mg/kg i.p.) is at most 18 min. Further, in the data set on mice (30 mg/kg i.p.), the toxic signs entry was “ataxia, convulsions and death”.
As for `CC(C)[C@@H](CN1CC[C@@](C)(c2cccc(O)c2)[C@@H](C)C1)NC(=O)[C@H]1Cc2ccc(O)cc2CN1` [JDTic], the Ki was at least 10 µM at 5-HT1a (setting [3]); at least 10 µM on 5-HT2a ([3H] radioligand Ketanserin, Human, Cloned, read-out: Ki); at least 10 µM on 5-HT2b (setting [7]); at least 10 µM at 5-HT2c ([3H] radioligand Mesulergine, Human, Cloned, read-out: Ki); at least 10 µM at 5-HT5a (setting [7]); 4.81 µM at α1B ([3H] radioligand Prazosin, Human, Cloned, read-out: Ki). Also, the Ki on α1B (binding curve File S1 (JDTic page), Alpha1B Receptor, [125I]HEAT (0.12 nM), read-out: Ki) is 4.81 µM; on α1B (α1B, radioligand displacement (Table 1), read-out: K i), 4.8 µM; on β1 ([3H] radioligand CGP12177, Human, Heart, read-out: Ki), at least 10 µM; at β2 ([3H] radioligand CGP12177, Human, Cloned, read-out: Ki), at least 10 µM; at D1 ([3H] radioligand SCH23390, Human, Cloned, read-out: Ki) it was at least 10 µM; in data set [1] (setting [8]), at least 10 µM. Besides, the Ki is at least 10 µM on M2 (setting [8]); over 10 µM on M2 (binding curve File S1, M2 Receptor, [3H]QNB (0.1 nM), Muscarinic Binding Buffer, read-out: Ki); at least 10 µM at M4 (setting [8]); at least 10 µM in data set [2]; at least 10 µM at α2A; 4.4 µM on DAT (K i, DAT, radioligand displacement (Table 1)). Moreover, the Ki at DAT (Ki, [3H] radioligand WIN35428, Human, Cloned) is 4.37 µM; on DAT (Ki, binding curve File S1, Dopamine Transporter, [3H]WIN35428 (3 nM), Transporter Binding Buffer), 4.37 µM; at 5-HT1d, at least 10 µM. Also, the toxic signs result with mice (100 mg/kg) is given as “no convulsions or deaths”.
Turning to `Oc1ccc2c3c1O[C@H]1c4[nH]c5c(c4C[C@@]4(O)[C@@H](C2)N(CC2CC2)CC[C@]314)C[C@@]1(O)[C@H]2Cc3ccc(O)c4c3[C@@]1(CCN2CC1CC1)[C@H]5O4` [nor-BNI, Nor-binaltorphimine], the Ki at 5-HT1a (5-HT1a, radioligand displacement (Table 1)) was 1.1 µM; at 5-HT1a (setting [3]) it was 1.11 µM; at 5-HT1a (binding curve File S1, 5-HT1A Receptor, [3H]8-OH-DPAT (0.5 nM), Standard Binding Buffer), 1.11 µM; on 5-HT2a, at least 10 µM; at 5-HT2b, at least 10 µM; on 5-HT2c, at least 10 µM. Also, the Ki (at 5-HT5a; at α1B (setting [4]); at β1; at β2; at D1; in data set [1]) was at least 10 µM in each case. In addition, the Ki at M2 (setting [5]) was at least 10 µM; at M4 it was at least 10 µM; in data set [2] it was at least 10 µM; on α2A (K i, α2A, radioligand displacement (Table 1)), 4.9 µM; at DAT it was at least 10 µM; at 5-HT1d (K i, 5-HT1d, radioligand displacement (Table 1)), 1.1 µM. For the same molecule, the Ki at 5-HT1d (setting [6]) amounted to 1.13 µM. Further, in data set [2] (at 10 µM), the “displacement of [3H]MK-801 from the phencyclidine (cation channel) site” value is “did not displace”. Besides, the toxic signs result in the data set on mice (100 mg/kg) is reported as “no convulsions or deaths”.

Source of the values: PMC3747596 (PLoS ONE, 2013).
